# Measurements: patent publication US20080081788A1, “Diagnosis and treatment for immunoglobulin E (IgE) implicated disorders” (priority 2002, published 2008)
# Where two headings read alike, the source gives them in different places. Ends that are not written are not given here.
# What was measured:
# [1] = tested on: IgE; assay type: in vivo, human; conditions: for IgE levels in saliva: ELISA titer, Normal 16200, Glucotrol 15 mg/day, LT-10 2 mg/day or both
# [2] = tested on: Insulin; assay type: in vivo, human; set-up: Insulin levels in saliva: unit not given here; conditions: for Insulin levels in saliva: ELISA titer, Normal 600, Glucotrol 15 mg/day, LT-10 2 mg/day or both
# [3] = assay type: in vivo, human; conditions: seven days, compared with expt #1 and #2
# [4] = tested on: Myoglobin; assay type: in vivo, human; conditions: for Myoglobin levels in saliva: ELISA titer, Normal 1800, Glucotrol 15 mg/day, LT-10 2 mg/day or both
# [5] = tested on: NGF; assay type: in vivo, human; conditions: for NGF levels in saliva: ELISA titer, Normal 1200, Glucotrol 15 mg/day, LT-10 2 mg/day or both
# [6] = in vivo
compound,measurement,setting,value
Cc1cnc(C(=O)NCCc2ccc(S(=O)(=O)NC(=O)NC3CCCCC3)cc2)cn1 [Glucotrol],IgE levels in saliva,[1]; Day 1,145800
same,IgE levels in saliva,[1]; Day 2,148600
same,IgE levels in saliva,[1]; Day 3,145800
same,IgE levels in saliva,[1]; Day 4,148600
same,IgE levels in saliva,[1]; Day 5,148600
same,IgE levels in saliva,[1]; Day 6,145800
same,IgE levels in saliva,[1]; Day 7,145800
same,"effect on IgE levels in saliva, in words",[1]; treatment for seven days,does not contribute in lowering IgE levels
same,Insulin levels in saliva,[2]; Day 1,1200
same,Insulin levels in saliva,[2]; Day 2,800
same,Insulin levels in saliva,[2]; Day 3,800
same,Insulin levels in saliva,[2]; Day 4,900
same,Insulin levels in saliva,[2]; Day 5,750
same,Insulin levels in saliva,[2]; Day 6,800
same,Insulin levels in saliva,[2]; Day 7,900
same,"effect on Insulin levels in saliva, in words",[2]; treatment for seven days,contributes m lowering Insulin levels
same,"effect on glucose level, in words",[3],did not make appreciable difference
same,Myoglobin levels in saliva,[4]; Day 1,1800
same,Myoglobin levels in saliva,[4]; Day 2,3600
same,Myoglobin levels in saliva,[4]; Day 3,3600
same,Myoglobin levels in saliva,[4]; Day 4,2700
same,Myoglobin levels in saliva,[4]; Day 5,2700
same,Myoglobin levels in saliva,[4]; Day 6,2700
same,Myoglobin levels in saliva,[4]; Day 7,3500
same,myoglobin level at completion point (FIG. 1),"[4]; end of seven days, times the normal level",increased the level of myoglobin
same,"effect on myoglobin levels in saliva, in words",[4]; treatment for seven days,contributes in increasing myoglobin levels
same,NGF levels in saliva,[5]; Day 1,2700
same,NGF levels in saliva,[5]; Day 2,8100
same,NGF levels in saliva,[5]; Day 3,5400
same,NGF levels in saliva,[5]; Day 4,5400
same,NGF levels in saliva,[5]; Day 5,2700
same,NGF levels in saliva,[5]; Day 6,2700
same,NGF levels in saliva,[5]; Day 7,5400
same,"effect on NGF levels in saliva, in words",[5]; treatment for seven days,perhaps increases NGF levels
LKAMDPTPPL [LT-10],side effects,[6],no observable side effects
